Source: US8338472B2, “Hexahydrocyclopentyl[F]indazole carboxamides and derivatives thereof as selective glucocorticoid receptor modulators” (Merck Sharp & Dohme Corp., priority 2008, dated 2012)
Where two headings read alike, the source gives them in different places.

Assays:
[1] = biological target: T1, glucocorticoid receptor (GR) (Homo sapiens, UniProt P04150); test: Ligand binding assay (GR BIND), 3H-dexamethasone displacement in MDA-MB-453 cell lysate; settings: GR BIND Ki, Table 1
T1 sequence (P04150 1-777): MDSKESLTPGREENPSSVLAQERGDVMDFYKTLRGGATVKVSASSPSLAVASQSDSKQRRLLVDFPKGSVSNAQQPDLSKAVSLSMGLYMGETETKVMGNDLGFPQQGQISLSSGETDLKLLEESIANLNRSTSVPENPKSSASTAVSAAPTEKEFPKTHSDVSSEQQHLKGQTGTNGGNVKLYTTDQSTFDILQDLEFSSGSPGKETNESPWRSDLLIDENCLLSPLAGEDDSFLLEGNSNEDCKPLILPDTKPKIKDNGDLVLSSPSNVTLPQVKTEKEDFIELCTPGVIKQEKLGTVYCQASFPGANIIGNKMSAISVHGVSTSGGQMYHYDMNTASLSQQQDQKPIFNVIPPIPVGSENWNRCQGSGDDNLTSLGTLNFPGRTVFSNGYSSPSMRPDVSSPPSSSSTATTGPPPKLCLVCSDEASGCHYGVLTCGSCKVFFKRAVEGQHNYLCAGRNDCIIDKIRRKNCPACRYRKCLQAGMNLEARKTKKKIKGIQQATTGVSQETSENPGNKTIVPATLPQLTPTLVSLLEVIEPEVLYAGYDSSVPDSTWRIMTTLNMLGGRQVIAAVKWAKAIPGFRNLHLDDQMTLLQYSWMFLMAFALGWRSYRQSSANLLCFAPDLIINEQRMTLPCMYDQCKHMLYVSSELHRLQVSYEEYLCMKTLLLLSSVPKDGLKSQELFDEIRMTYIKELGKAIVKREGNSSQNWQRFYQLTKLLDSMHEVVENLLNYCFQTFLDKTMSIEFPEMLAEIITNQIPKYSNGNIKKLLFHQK

human GR = biological target: T2, human GR (Homo sapiens, UniProt P04150); test: Transrepression Assay (GITAR), TNFα-β-lactamase reporter gene in U937 cells; type: cell-based; settings: for GITAR Greater than by GRAMMER % SEP: GITAR Emax minus GRAMMER Emax; for EC50: inflection point, read-out: Transrepression U937 Cells GITAR IP; for Transrepression U937 Cells GITAR Emax / EC50: U937 cells
T2 construct: U937 cells contain an endogenous glucocorticoid receptor (GR); endogenous in cells; host or cells: U937 cells stably transfected with the TNF-alpha promoter/beta-lactamase reporter
T2 sequence (P04150 1-777): T1 sequence (P04150 1-777)
How it was run: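 Repression of PMA (5 ng/ml final)/LPS (100 ng/ml final)-induced TNF-α promoter activity, read as β-lactamase cleavage of CCF2-AM, in stably transfected U937 cells expressing native GR. Compound added 30-45 min before stimulation, overnight (~18 hr) 37° C; normalized to 100 nM dexamethasone (100%).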

Glucocorticoid Receptor = biological target: T3, Glucocorticoid Receptor (Homo sapiens, UniProt P04150); test: Trans-Activation Modulation of Glucocorticoid Receptor (GRAMMER), MMTV-LUC reporter gene in A549 cells; type: cell-based; settings: Table 1; for Transactivation A549 Cells GRAMMER Emax / Emax: Emax relative to 300 nM dexamethasone; for EC50: inflection point, read-out: Transactivation A549 Cells GRAMMER IP; for Transactivation A549 Cells GRAMMER Emax / EC50: A549 cells; for Emax: A549, A549 cells, read-out: Transactivation A549 Cells GRAMMER Emax
T3 construct: These cells express large amount of the GR and are very responsive to GC treatment; endogenous in cells; host or cells: A549 cells transiently transfected with the MMTV-LUC reporter
T3 sequence (P04150 1-777): T1 sequence (P04150 1-777)
How it was run: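 Luciferase from a transiently transfected MMTV-LUC reporter was measured after 24 h compound exposure (≤1% DMSO) in A549 or MDA-MB-453 cells. For antagonism, the decrease of 10 nM dexamethasone-induced signal was calculated. For agonism, Emax was referenced to 300 nM dexamethasone.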

[2] = activity repressed by 100 nM dexamethasone = 100%, Table 1
[3] = U-937, text statement, 100 nM dexamethasone = 100%, read-out: maximal activity in the transrepression assay (GITAR)
[4] = U-937, U937 cells, activity repressed by 100 nM dexamethasone = 100%, Table 1, read-out: Transrepression U937 Cells GITAR Emax

Structure (SMILES)	Ki [1]	GITAR Greater than by GRAMMER % SEP (human GR; Table 1)	Transrepression U937 Cells GITAR Emax (human GR; [2])	Emax (human GR; [3])	EC50 (human GR; Table 1)	Transactivation A549 Cells GRAMMER Emax (Glucocorticoid Receptor)	EC50 (Glucocorticoid Receptor)	Emax (human GR; [4])	Emax (Glucocorticoid Receptor)
C[C@]12Cc3cnn(-c4ccc(F)cc4)c3C=C1CC[C@@H]2C(=O)N(CCc1ccccc1F)CC(O)CC(F)(F)F (stereo partly drawn) [Compound 87, (4αR,5S)-1-(4-fluorophenyl)-N-[2-(2-fluorophenyl)ethyl]-4α-methyl-N-(4,4,4-trifluoro-2-hydroxybutyl)-1,4,4α,5,6,7-hexahydrocyclopenta[f]indazole-5-carboxamide]	0.8 nM	23.1%	61.1%	> 5%	232 nM	38.0%	287 nM	–	–
CCCN(CCC(F)(F)F)C(=O)[C@H]1CCC2=Cc3c(cnn3-c3ccc(F)cc3)C[C@@]21C [Compound 88, (4αR,5S)-1-(4-fluorophenyl)-4α-methyl-N-propyl-N-(3,3,3-trifluoropropyl)-1,4,4α,5,6,7-hexahydrocyclopenta[f]indazole-5-carboxamide]	2.2 nM	5.9%	–	> 5%	234 nM	–	371 nM	73.9%	68%
CO[C@H](C)CN(C)C(=O)[C@H]1CCC2=Cc3c(cnn3-c3ccc(F)cc3)C[C@@]21C [Compound 89, (4αR,5S)-1-(4-fluorophenyl)-N-[(2R)-2-methoxypropyl]-N,4α-dimethyl-1,4,4α,5,6,7-hexahydrocyclopenta[f]indazole-5-carboxamide]	120 nM	6.5%	–	> 5%	3450 nM	–	492 nM	10.2%	3.7%
CN(CCC(F)(F)F)C(=O)[C@H]1CCC2=Cc3c(cnn3-c3ccc(F)cc3)C[C@@]21C [Compound 90, (4αR,5S)-1-(4-fluorophenyl)-N,4α-dimethyl-N-(3,3,3-trifluoropropyl)-1,4,4α,5,6,7-hexahydrocyclopenta[f]indazole-5-carboxamide]	17.3 nM	24.2%	–	> 5%	609 nM	–	565 nM	44.5%	20.3%
CCN(CCC(F)(F)F)C(=O)[C@H]1CCC2=Cc3c(cnn3-c3ccc(F)cc3)C[C@@]21C [Compound 91, (4αR,5S)-N-ethyl-1-(4-fluorophenyl)-4α-methyl-N-(3,3,3-trifluoropropyl)-1,4,4α,5,6,7-hexahydrocyclopenta[f]indazole-5-carboxamide]	4.5 nM	30.6%	–	> 5%	333 nM	–	312 nM	75.1%	44.5%
C[C@]12Cc3cnn(-c4ccc(F)cc4)c3C=C1CC[C@@H]2C(=O)N(CCc1ccccc1F)CC(O)C(F)(F)F (stereo partly drawn) [Compound 92, (4αR,5S)-1-(4-fluorophenyl)-N-[2-(2-fluorophenyl)ethyl]-4α-methyl-N(3,3,3-trifluoro-2-hydroxypropyl)-1,4,4α,5,6,7-hexahydrocyclopenta[f]indazole-5-carboxamide]	1.5 nM	4.7%	44.9%	–	143 nM	40.2%	285 nM	–	–
C[C@]12Cc3cnn(-c4ccc(F)cc4)c3C=C1CC[C@@H]2C(=O)N(CCc1ccccc1F)CC(O)C(F)(F)F (stereo partly drawn) [Compound 93, (4αR,5S)-1-(4-fluorophenyl)-N-[2-(2-fluorophenyl)ethyl]-4α-methyl-N-(3,3,3-trifluoro-2-hydroxypropyl)-1,4,4α,5,6,7-hexahydrocyclopenta[f]indazole-5-carboxamide]	1.1 nM	5.9%	67.5%	–	172 nM	61.7%	277 nM	–	–
